Results taken from US8075874B2, “Methods for disinfecting and removing smear layer from tooth surfaces” (Dentsply International, Inc., priority 2002, dated 2011).

Key:
[1] = Removal of smear layer from coronal cavity preparations (SEM); conditions: third molars, Class I preparations; solution left 5 minutes
Protocol: Sound third molars were collected and stored in deionized water. Class I preparations were made following conventionally accepted procedures in the occlusal surfaces of the teeth. The teeth were randomly divided into two groups. […] After this treatment each preparation was rinsed with copious amounts of water to eliminate the residual effect of sodium hypochlorite. Group 2: ADD solution was left in the cavity for 5 minutes. After this treatment each preparation was rinsed with copious amounts of distilled water to eliminate the residual effect of ADD. After irrigation, the crowns were split in half using a diamond saw and constant water spray. Half of each sample was placed into a gluteraldehyde solution for 24 h. The fixed specimens were then rinsed twice by a sodium buffered solution (pH 7.2), treated with osmium tetraoxide for one hour, rinsed with ascending concentrations of ethyl alcohol 30%-100%, and then placed in a dessicator for 24 h. […] The presence or absence of smear layer on the walls of each cavity was evaluated. The erosion of dentinal tubules was also assessed.

[2] = Removal of smear layer from prepared crown preparations (SEM); conditions: saturated cotton pellet left 5 minutes
Protocol: Sound third molars were collected and stored in deionized water. Crown preparations were made following conventionally accepted procedures. The samples were randomly divided into two groups.
After this treatment each preparation was rinsed with copious amounts of distilled water to eliminate the residual effect of sodium hypochlorite.
Group 2: A cotton pellet saturated with ADD solution was left on the crown preparations for 5 minutes. After this treatment each preparation was rinsed with copious amounts of distilled water to eliminate residual ADD.
After irrigation, the crown preparations were split in half using a diamond saw and constant water spray. Half of each sample was placed into a gluteraldehyde solution for 24 h. The fixed specimens were then rinsed twice by a sodium buffered solution (pH 7.2), treated with osmium tetraoxide for one hour, rinsed with ascending concentrations of ethyl alcohol 30%-100%, and then placed in a dessicator for 24 h. Finally, each specimen was mounted on a special button, and coated with 25 μm of gold-palladium (Au—Pd) (Wakabayashi et al., 1995). The presence or absence of smear layer on the walls of each cavity was evaluated. The erosion of dentinal tubules was also assessed.

Enterococcus faecalis [3] = experiment: Zone of inhibition on inoculated TSA plates; type: cell-based; conditions: E. faecalis; for bactericidal effect upon dilution (zone of inhibition): diluted five- or ten-fold
Protocol: In the first test, the zone of inhibition was measured on plates inoculated with Enterococcus faecalis. An overnight culture of E. faecalis (ATCC 4082) was standardized to 0.11 optical density (O.D.) measured at 570 nm. One hundred microliters of the microorganism was spread onto a trypticase soy agar (TSA) plate with the use of a sterile L-shaped glass rod. One-quarter inch sterile S & S filter paper (Schleicher & Schuell) was placed in each of the four quadrants of the TSA plate. […] Eight replicates were prepared for each of the sample solutions. The plates were incubated overnight at 37° C. for 24 hours and the zones of inhibition were measured in millimeters.

[4] = Removal of smear layer from root canal walls (SEM); conditions: extracted human teeth; 5 min contact; ADD group instrumented with 1% sodium hypochlorite as irrigant
Excerpt: Extracted maxillary and mandibular human teeth were used for this study. The working lengths of these teeth were between 21-25 millimeters. The teeth were scaled of any calculus and other surface debris (soft tissue and/or alveolar bone) using hand scalers. After preparing conventional access preparations through the incisal or occlusal surfaces of the test teeth, a K-type file (size 10) was used to determine the working length of each tooth by penetrating the apical foramen and pulling back to the clinical apical foramen. […] The apex of each tooth was enlarged to size 30 files.
After complete cleaning and shaping, the canals were irrigated with 1 ml of NaOCl and a barbed broach wrapped with cotton was taken to the canal terminus and left for five minutes to ensure uniform direct contact of the irrigant with the entire canal. Upon removal of the barbed broach, the canal was irrigated with 4 ml of NaOCl and rinsed with 10 ml of distilled water. Group 2: NSET was performed using 1% sodium hypochlorite as root canal irrigant. […] Upon removal of the barbed broach, the canal was irrigated with 4 ml of ADD and rinsed with 10 ml of distilled water. […] The presence or absence of smear layer at the coronal, middle, and apical portion of each canal was evaluated. The erosion of dentinal tubules was also assessed at different levels of each canal.

[5] = Removal of smear layer from root end cavity preparations (SEM); design: species or system human; conditions: solution left in cavity five minutes
Protocol: Extracted, human single-rooted teeth were used in this part of the experiment.
The working length of each canal was determined by placing and moving a #15 K file apically in the canal until it exited from the apical foramen.
The access cavities were closed with Cavit. The roots were then wrapped in moist gauze and stored in a closed glass bottle at room temperature and 100% humidity for one week.
Two coats of nail polish were applied to the external surface of each root.
Apical cavity preparations were made in each of the roots. A #1 round bur in a high-speed handpiece with water coolant was used to create a small opening into the gutta-percha filling material.
The roots were then randomly divided into two groups. […] The solution was left in the cavity for five minutes and then rinsed with 10 ml of distilled water. In Group 2, the preparations were rinsed with 5 ml of ADD. This solution was also left in the root end cavities for five minutes and then rinsed with 5 ml of distilled water. After drying with paper points, the roots were split in halves using a slow speed diamond saw (Labut Agar Scientific, Cambridge, England).
Half of each sample was placed into a gluteraldehyde solution for 24 h. […] The presence or absence of smear layer on the root end cavity preparations was evaluated. The erosion of dentinal tubules was also assessed.

[6] = Removal of smear layer from root surfaces of teeth (SEM); conditions: saturated cotton pellet left 5 minutes
Protocol: The coronal one-third root surfaces of these teeth were curetted following conventionally accepted procedures. The samples were randomly divided into two groups.
After this treatment each root surface was rinsed with copious amounts of distilled water to eliminate the residual effect of sodium hypochlorite.
Group 2: A cotton pellet saturated with ADD solution was left on the root surface preparations for 5 minutes. After this treatment each preparation was rinsed with copious amounts of distilled water to eliminate the residual effect of ADD.
After irrigation, the entire tooth was split in half using a diamond saw and constant water spray. Half of each sample was placed into a gluteraldehyde solution for 24 h. The fixed specimens were then rinsed twice by a sodium buffered solution (pH 7.2), treated with osmium tetraoxide for one hour, rinsed with ascending concentrations of ethyl alcohol 30%-100%, and then placed in a dessicator for 24 h. Finally, each specimen was mounted on a special button, and coated with 25 μm of gold-palladium (Au—Pd) (Wakabayashi et al., 1995). The presence or absence of smear layer on the root surfaces was evaluated. The erosion of dentinal tubules was also assessed.

[7] = test system: root canals infected with whole saliva; experiment: Disinfection of human root canals infected with whole saliva
Excerpt: It will be apparent to those of skill in the art that a solution such as the one described herein (i.e., one that has improved biocompatibility and is effective in a shorter period of time than previously known treatments) is highly desirable, particularly in the health care fields. Studies have also shown that, unlike other previously known dental irrigants, the solution of the present invention maintains the desired antimicrobial effect at dilutions up to 1:200. […] In a further study undertaken to evaluate the antimicrobial properties of the presently described solution, human root canals were infected with whole saliva and then treated with either 5.25% NaOCl or a solution of doxycycline, polysorbate 80, and citric acid. While the NaOCl effectively disinfected only 37 out of 60 teeth, the solution of the present invention disinfected 59 out of 60 teeth. The importance and desirability of such improved antimicrobial properties can be easily appreciated, particularly by those of skill in the art.

Enterococcus faecalis [8] = experiment: Minimum inhibitory concentration (serial dilution, turbidity); type: cell-based
Protocol: In the second test, the minimum inhibitory concentration (MIC) was measured. E. faecalis was cultured overnight and the concentration was adjusted to 0.11 O.D. at 570 nm. The test solutions were serially diluted from 1:2 up to 1:2048 dilutions. One ml of 2× trypticase soy broth (TSB) and the same amount of a test solution were mixed in various tubes. One hundred microliters of the standardized E. faecalis was added into each of the test tubes and were incubated overnight at 37° C. The presence or absence of turbidity was determined the following day.

Structure (SMILES) | presence or absence of smear layer on cavity walls [1] | presence or absence of smear layer on crown preparations [2] | bactericidal effect upon dilution (zone of inhibition) (Enterococcus faecalis [3]) | zone of inhibition, undiluted versus diluted (Enterococcus faecalis [3]; undiluted, 1:5, 1:10) | presence or absence of smear layer on root canal walls [4] | presence or absence of smear layer on root end cavity preparations [5] | presence or absence of smear layer on root surfaces [6] | teeth disinfected [7] | dilution up to which solution is effective (minimum inhibitory concentration test) (Enterococcus faecalis [8]; E. faecalis, overnight at 37° C., turbidity) | dilution limit of antimicrobial / bactericidal effect (Enterococcus faecalis [8]; summary statement in description)
[Na+].[O-]Cl [5.25% NaOCl, sodium hypochlorite] | presence of smear layer on the walls of all teeth | presence of smear layer on the surface of all crowns | some bactericidal effect | more effective when undiluted than at 1:5 or 1:10 dilution | presence of smear layer on the entire root canal walls of all teeth | presence of smear layer on the surface of all cavity preparations | presence of smear layer on the surface of all roots | 37 out of 60 | – | –
O=C(O)CN(CCN(CC(=O)O)CC(=O)O)CC(=O)O [EDTA, ethylenediamine tetraacetic acid] | – | – | no bactericidal properties | – | – | – | – | – | no antibacterial effects at any dilution level | ineffective in anything other than an undiluted state
